Reference: patent US20200215142A1, “PHARMACEUTICAL COMPOSITION CONTAINING AVOCADO OIL FRACTION AS ACTIVE INGREDIENT FOR PREVENTION OR TREATMENT OF HEARING LOSS” (DONG KOOK PHARM CO., LTD, priority 2017, published 2020)

Columns and labels:
[1] = test system: hair cells of zebrafish reduced by neomycin; test: Hair cells of zebrafish larvae reduced by neomycin (ototoxicity), YO-PRO staining and fluorescence microscope count; assay type: in vivo; conditions: neomycin 1 μM 1 h, then single substance 1 μg/ml 12 h (FIGS. 7, 8)
Experimental: Particularly, 6 days after fertilization, zebrafish […] placed in 24-well plates and neomycin was added thereto at the concentration of 1 μM. One hour later, neomycin was removed and the isopropanol fraction of avocado oil prepared in Example 1 was added at the concentration of 1 μg/ml. At this time, avocado oil was used as the control and 0.03% (w/v) sea salt solution was used as the untreated control. Twelve hours later, 0.1% YO-PRO (Life Technologies, USA) was added to stain hair cells of the […] for 30 minutes. […] Particularly, 6 days after fertilization, zebrafish […] placed in 24-well plates and neomycin was added thereto at the concentration of 1 μM. One hour later, neomycin was removed and A-E were added at the concentration of 10 μg/ml. At this time, 0.03% (w/v) sea salt solution was used as the control. Twelve hours later, 0.1% YO-PRO (Life Technologies, USA) was added to stain hair cells of the […] for 30 minutes. The stained hair cells were observed using a fluorescence microscope (Olympus 1x70, Olympus, Japan), and the number of the observed hair cells was counted and analyzed.

[2] = test system: hair cells of zebrafish reduced by kanamycin; assay type: in vivo; conditions: kanamycin 1 μM vs neomycin 1 μM, 1 h; comparison of Experimental Examples 6 and 7
Experimental: Particularly, 6 days after fertilization, zebrafish larvaes were placed in 24-well plates and kanamycin was added thereto at the concentration of 1 μM. One hour later, kanamycin was removed and IPG and BG were added at the concentration of 10 μg/ml. At this time, 0.03% (w/v) sea salt solution was used as the control. Twelve hours later, 0.1% YO-PRO (Life Technologies, USA) was added to stain hair cells of the larvaes for 30 minutes. The stained hair cells were observed using a fluorescence microscope (Olympus 1x70, Olympus, Japan), and the number of the observed hair cells was counted and analyzed. As a result, the number of hair cells observed with a fluorescence microscope was shown in FIG. 11 and photomicrographs of the hair cells taken with a fluorescence microscope were shown in FIG. 12.

| SMILES | number of hair cells [1] | toxicity to hair cells of zebrafish fry (reduction of the number of hair cells) [2] |
| --- | --- | --- |
| CCCCCCCCCCCCCCCCCC(=O)O [stearic acid] | significantly increased | – |
| NC[C@H]1O[C@H](O[C@H]2[C@H](O)[C@@H](O[C@H]3O[C@H](CO)[C@@H](O)[C@H](N)[C@H]3O)[C@H](N)C[C@@H]2N)[C@H](O)[C@@H](O)[C@@H]1O [kanamycin] | – | more toxic than neomycin |
| CCCCC/C=C\C/C=C\CCCCCCCC(=O)O [linoleic acid] | significantly increased | – |
| CC/C=C\C/C=C\C/C=C\CCCCCCCC(=O)O [alpha-linolenic acid] | significantly increased | – |
